Tests used:
[1] = system: pooled normal human plasma; assay: Prothrombin time (PT) assay in citrated human plasma; format: biochemical; settings: control clotting time 13 seconds, mean of two independent determinations
Excerpt: (§1) FIG. 2 depicts the anticoagulant effect of (D)-camphorsulfonyl aspartyl sarcosine arginine aldehyde measured in citrated human plasma using the activated partial thromboplastin time (APTT) assay, closed circles (1), and prothrombin time (PT) assay, open triangles (D). The control clotting times (0 inhibitor) for the APTT and PT assays in human plasma were 29 seconds and 13 seconds, respectively. The concentration of (D)-camphorsulfonyl aspartyl sarcosine arginine aldehyde which caused a doubling of the control clotting times in the APTT and PT assays were 54 micromolar and 298 micromolar, respectively. The data is the mean of two independent determinations.
(§2) The ex vivo anticoagulant effect of a compound of the present invention, (D)-camphorsulfonyl aspartyl sarcosine arginine aldehyde (Example 56), was determined by measuring the prolongation of the activated partial thromboplastin time (APTT) and prothrombin time (PT) over a broad concentration range of the added inhibitor, using pooled normal human plasma.
(§3) Fresh frozen citrated pooled normal human plasma was obtained from George King Biomedical, Overland Park, Kansa. […]

[2] = system: pooled normal human plasma; assay: Activated partial thromboplastin time (APTT) assay in citrated human plasma; format: biochemical
Excerpt: as §1, §2, §3

CN(CC(=O)N[C@H](C=O)CCCN=C(N)N)C(=O)[C@H](CC(=O)O)NS(=O)(=O)C[C@]12CC[C@H](CC1=O)C2(C)C [(D)-camphorsulfonyl aspartyl sarcosine arginine aldehyde]
concentration which caused a doubling of the control clotting time in the PT assay [1]: 298 µM
concentration which caused a doubling of the control clotting time in the APTT assay ([2]; citrated human plasma, control clotting time 29 seconds, mean of two independent determinations): 54 µM
prolongation of the APTT ([2]; human plasma, broad concentration range of added inhibitor (FIG. 2)): prolonged the APTT in a dose dependent manner
